According to patent publication US12398107B2, “Fungicidal nitroanilino substituted pyrazoles” (FMC Corporation, priority 2018, dated 2025):

Key:
Type in all cases: in vivo
Phakopsora pachyrhizi = experiment: Test D: Asian soybean rust, preventive spray on soybean seedlings; conditions: 50 ppm, 100 = 100% disease control, 0 = no control; for pest or weed control at 50 ppm: Phakopsora pachyrhizi, read-out: Test D disease control rating (Asian soybean rust)
Summary of the method: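 Soybean seedlings sprayed to run-off with compound suspension (ppm, in 50/50 acetone/water with 250 ppm PEG400), inoculated next day with P. pachyrhizi spores, held 24 h saturated at 22°C then 8 days at 22°C. Visual rating 0-100% disease control relative to controls.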

[1] = test system: Blumeria graminis f. sp. tritici; experiment: Test C: wheat powdery mildew, preventive spray on wheat seedlings; conditions: 50 ppm, rated after 8 days, 100 = 100% disease control, 0 = no control; for pest or weed control at 50 ppm: Blumeria graminis, 192 h, read-out: Test C disease control rating (wheat powdery mildew)
Summary of the method: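 Compound dissolved in acetone (3% of final volume), then suspended in 50/50 acetone/water with 250 ppm PEG400 and sprayed to run-off on wheat seedlings. Inoculated next day with B. graminis f. sp. tritici spore dust, kept 8 days at 20° C; visual rating, 100 = full control, 0 = none, relative to controls.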

Septoria tritici = experiment: Test A: wheat leaf blotch, preventive spray on wheat seedlings; conditions: 50 ppm, 100 = 100% disease control, 0 = no control relative to controls; for pest or weed control at 50 ppm: Zymoseptoria tritici, read-out: Test A disease control rating (wheat leaf blotch)
Summary of the method: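 Compounds were suspended in acetone/water (50/50) with 250 ppm PEG400 and sprayed to run-off on wheat seedlings. The next day the seedlings were inoculated with Septoria tritici spores, held 48 h at 24 °C in saturated humidity, then 17 days at 20 °C. Disease control was rated 0–100 relative to controls.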

[2] = test system: Puccinia recondita f. sp. tritici; experiment: Test B: wheat leaf rust, preventive spray on wheat seedlings; conditions: 50 ppm, 100 = 100% disease control, 0 = no control relative to controls; for pest or weed control at 50 ppm: read-out: Test B disease control rating (wheat leaf rust)
Summary of the method: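 Compounds in acetone/water (50/50) with 250 ppm PEG400, sprayed to run-off on wheat seedlings at stated ppm; inoculated next day with P. recondita spores. Held 24 h saturated at 20° C., then 7 days in growth chamber at 20° C.; rating 0–100 = % disease control vs controls.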

Botrytis cinerea = experiment: Test E: tomato Botrytis, preventive spray on tomato seedlings; conditions: 50 ppm, 100 = 100% disease control, 0 = no control; for pest or weed control at 50 ppm: Botrytis cinerea, read-out: Test E disease control rating (tomato Botrytis)
Summary of the method: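 Tomato seedlings sprayed to run-off with compound (ppm) in acetone/water with 250 ppm PEG400, then inoculated next day with B. cinerea spores. Held 48 h at 20 °C in saturated atmosphere, then 3 days at 24 °C. Visual rating 0–100% disease control relative to untreated controls.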

Alternaria solani = experiment: Test F: tomato early blight, preventive spray on tomato seedlings; conditions: 50 ppm, 100 = 100% disease control, 0 = no control; for pest or weed control at 50 ppm: Alternaria solani, read-out: Test F disease control rating (tomato early blight)
Summary of the method: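 Compounds in acetone/water (50/50) with 250 ppm PEG400, dosed in ppm, sprayed to run-off on tomato seedlings; next day inoculated with A. solani spores. Held 48 h saturated at 27° C, then 3 days at 20° C; visual rating 0–100% disease control relative to controls.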

SMILES	Test D disease control rating (Asian soybean rust) (Phakopsora pachyrhizi)	Test C disease control rating (wheat powdery mildew) [1]	Test A disease control rating (wheat leaf blotch) (Septoria tritici)	Test B disease control rating (wheat leaf rust) [2]	Test E disease control rating (tomato Botrytis) (Botrytis cinerea)	Test F disease control rating (tomato early blight) (Alternaria solani)	pest or weed control at 50 ppm (Phakopsora pachyrhizi)	pest or weed control at 50 ppm [1]	pest or weed control at 50 ppm (Septoria tritici)	pest or weed control at 50 ppm [2]	pest or weed control at 50 ppm (Botrytis cinerea)	pest or weed control at 50 ppm (Alternaria solani)
Cc1nn(C)c(Nc2c(Br)cccc2[N+](=O)[O-])c1-c1ccc(C#N)cc1Cl [Compound 125]	0%	0%	100%	96%	99%	9%						
CCc1nn(C)c(Nc2c(F)cc(F)cc2[N+](=O)[O-])c1-c1ccc(F)cc1F [Compound 50]	0%	100%	100%	98%	92%	98%						
COc1cc(F)c(Nc2c(-c3c(F)cccc3F)c(C)nn2C)c([N+](=O)[O-])c1 [Compound 97]	96%	100%	100%	100%	100%	99%						
COc1cc(F)c(Nc2c(-c3ccc(C#N)cc3Cl)c(C)nn2C)c([N+](=O)[O-])c1 [Compound 166]	98%	98%	99%	100%	99%	100%						
Cc1nn(C)c(Nc2c(Cl)cc(Br)cc2[N+](=O)[O-])c1-c1ccc(F)cc1F [Compound 55]	0%	90%	100%	99%	34%	0%						
Cc1nn(C)c(Nc2c(Cl)cc(F)cc2[N+](=O)[O-])c1-c1ccc(F)cc1Br [Compound 43]	65%	97%	100%	100%	96%	64%						
Cc1nn(C)c(Nc2c(F)cc(Cl)cc2[N+](=O)[O-])c1-c1ccc(F)cc1F [Compound 102]	48%	100%	100%	100%	99%	99%						
COc1ccc(-c2c(C)nn(C)c2Nc2c(Cl)cc(F)cc2[N+](=O)[O-])c(Cl)c1 [Compound 73, N-(2-chloro-4-fluoro-6-nitrophenyl)-4-(2-chloro-4-methoxyphenyl)-1,3-dimethyl-1H-pyrazol-5-amine]							98%	96%	100%	100%	99%	97%
Cc1nn(C)c(Nc2c(Cl)cc(F)cc2[N+](=O)[O-])c1-c1ccc(C#N)cc1Cl [Compound 18, 3-chloro-4-[5-[(2-chloro-4-fluoro-6-nitrophenyl)amino]-1,3-dimethyl-1H-pyrazol-4-yl]benzonitrile]							92%	89%	100%	100%	100%	99%
Cc1nn(C)c(N(C)c2c(F)cccc2[N+](=O)[O-])c1-c1ccc(F)cc1Cl [Compound 172]							0%	100%	100%	100%	99%	40%
Cc1nn(C)c(Nc2c(Cl)cccc2[N+](=O)[O-])c1-c1c(F)cccc1F [Compound 77]	73%	95%	100%	100%	72%	9%						
Cc1nn(C)c(Nc2ccccc2[N+](=O)[O-])c1-c1ccc(C#N)cc1F [Compound 134]	0%	71%	100%	23%	70%	0%						
COc1cc(F)c(-c2c(C)nn(C)c2Nc2c(C)cccc2[N+](=O)[O-])c(F)c1 [Compound 162]	77%	99%	100%	100%	97%	98%						
COc1ccc(-c2c(C)nn(C)c2Nc2c(F)cccc2[N+](=O)[O-])c(C)c1 [Compound 48]	0%	89%	100%	95%	97%	97%						
CCOc1ccc(Nc2c(-c3ccc(F)cc3Cl)c(C)nn2C)c([N+](=O)[O-])c1 [Compound 103]	0%	50%	97%	80%	83%	0%						
Cc1ccc(Nc2c(-c3ccc(F)cc3Br)c(C)nn2C)c([N+](=O)[O-])c1 [Compound 90]	0%	87%	100%	95%	99%	9%						
COc1cc(F)c(-c2c(C)nn(C)c2Nc2c(F)cccc2[N+](=O)[O-])c(F)c1 [Compound 70]	84%	99%	100%	100%	99%	99%						
